In patent US12528812B2 (Genentech, Inc., priority 2020, dated 2026):
Where two headings read alike, the source gives them in different places.

What was measured:
[1] = tested on: IL-13-stimulated STAT6 phosphorylation in human lung bronchial epithelial BEAS-2B cell line; assay: P-STAT6 BEAS-2B + IL-13 cell assay; type: cell-based; settings: BEAS2B cells, IL13 stimulation, read-out: Cellular JAK1 PSTAT6 BEAS2B + IL13
Method in brief: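 Phospho-STAT6 (Tyr641) was quantified in lysates by MSD electrochemiluminescence after human IL-13 challenge (250 ng/mL stock, 15 min, 37 °C). Before that, BEAS-2B cells cultured 48 h had 1 h compound exposure over 10 concentrations. Percent of control was fitted to a four-parameter logistic model to give IC50.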

[2] = biological target: Recombinant human JAK2 kinase domain protein (Residues 812-1132) (Homo sapiens, UniProt O60674); assay: JAK2 biochemical assay (LabChip mobility shift, Ki); settings: Biochem JAK2 Ki
Experimental: The in vitro biochemical assays quantify JAK-catalyzed phosphorylation of a synthetic peptide, as detected using a LabChip® EZ Reader II microfluidic mobility shift instrument (PerkinElmer; Waltham, MA). […] Y-1B is fluorescently labeled on the N-terminus with 5-FAM (5-carboxyfluorescein) and contains a single tyrosine residue (Y) that can be phosphorylated by JAK activity. The substrate peptide stock is prepared in DMSO at 5 mM. […] In each titration experiment, test compound was tested in duplicate at each of the twelve concentrations. Blank reactions contained ATP, peptide, and DMSO, but no JAK or test compound, whereas uninhibited control reactions contained ATP, peptide, JAK, and DMSO, but no test compound.
Peptide plus ATP mixture (24 μL) was added to 1 μL of test compound in DMSO (or DMSO alone). The reactions were initiated by adding 25 μL of JAK enzyme to the inhibitor/peptide/ATP mixture before thoroughly mixing the resultant solution. Reactions were incubated at room temperature (22° C.-23° C.) in a final volume of 50 μL per well in 384-well plates. After a 30-minute incubation, the reactions were stopped by adding 25 μL of 150 mM ethylenediaminetetraacetic acid in 100 mM HEPES buffer (pH 7.2) containing 0.015% Brij 35 to each well.
In each reaction, the residual Y-1B substrate and the phospho-peptide product generated were separated using the EZ Reader II instrument. Electrophoretic separation of molecules of product from molecules of substrate was achieved using downstream and upstream voltages of −500 and −2600 V, respectively, at an operating pressure of −1.3 psi.
The extent (or percent) of conversion of substrate to product was calculated from the corresponding peak heights in the electropherogram using HTS Well Analyzer software, Version 5.2 (PerkinElmer), and the following equation (Equation 1): conversion=[P÷(S+P)]×100 Equation 1% where S and P represent the peak heights of the substrate and product, respectively. After any baseline signal from blank wells containing no JAK was subtracted from the signal of all test wells, the % conversion data were converted to fractional activity as shown in Equation 2, where vi and vo are the % conversion in the presence and absence of test compound, respectively.

[3] = biological target: T1, recombinant human JAK1 kinase domain protein (Residues 854-1154) (Homo sapiens, UniProt P23458); assay: JAK1 biochemical assay (LabChip mobility shift, Ki); settings: read-out: Biochem JAK1 Ki
T1 construct: human JAK1 kinase domain protein (Residues 854-1154); purchased Proteros Biostructures GmbH (Martinsried, Germany); host or cells: insect cells

[4] = tested on: EPO-stimulated P-STAT5 in TF-1 human erythroleukemia cells; assay: P-STAT5 TF-1 + EPO assay (JAK2 pathway); type: cell-based; settings: Homo sapiens, TF-1, TF-1 cells, EPO stimulation; read-out: Cellular JAK2 PSTAT5 TF-1 + EPO
Experimental: (§1) TF-1 human erythroleukemia cells (ATCC′; Manassas, VA; Catalog No. CRL-2003™) were grown in Roswell Park Memorial Institute (RPMI) medium supplemented with 10% heat-inactivated fetal bovine serum (FBS), 2 ng/mL granulocyte-macrophage colony-stimulating factor, 1× non-essential amino acids (NEAA), and 1 mM sodium pyruvate. The day before the assay, the cultures were transferred to Opti-MEM™, 1×NEAA, 1 mM sodium pyruvate, and 0.5% charcoal-stripped FBS (starve medium). Inhibitor stock solutions (5 mM in DMSO) were serially diluted 1:2 in DMSO to generate a 10-point concentration titration (at 500× test concentration), which was further diluted by a 50-fold dilution in Assay Medium (RPMI containing 1×NEAA and 1 mM sodium pyruvate) to generate a 10× concentration titration (in 2% DMSO). The cells (300,000 cells/well in 35 μL of Assay Medium) were seeded in 384-well Greiner plates. Diluted inhibitor at 10× concentration (5 μL) was added to the cells and the plates were incubated for 30 minutes at 37° C. in a humidified incubator. Cells were stimulated with the human recombinant cytokine at the respective EC90 concentrations, as previously determined for each individual lot. For the phosphorylated signal transducer and activator of transcription 6 (P-STAT6) TF-1+Interleukin-13 (IL-13) assay, 10 μL of 250 ng/mL IL-13 (R&D Systems; Minneapolis, MN) was added to the cells, which were then incubated for 10 minutes at 37° C. For the P-STAT5 TF-1+Erythropoietin (EPO) assay, 10 μL of 110 IU/mL EPO (Gibco Life Technologies, Catalog No. PHC2054) was added to the cells, which were then incubated for […] at 37° C. For both assays, the incubation was followed by addition to the cells of 5 μL of ice-cold 10× cell lysis buffer (Cell Signaling Technologies; Danvers, MA; Catalog No. 9803S) containing 1 mM phenylmethylsulfonyl fluoride (PMSF). Assay plates were frozen at −80° C. for a minimum of 1 hour. In the IL-13 assay, P-STAT6 was measured by coating goat anti-rabbit (GAR) plates (Meso Scale Discovery [MSD]; Rockville, MD; Catalog No. MSD L21RA-1) with rabbit anti-human total STAT6 antibody (Cell Signaling Technologies; Catalog No. 9362S), incubating the cell lysates in the coated plates overnight at 4° C., and then detecting with mouse anti-P-STAT6 (Tyr641) Clone 16E12 antibody (MilliporeSigma; Burlington, MA; Catalog No. 05-590, custom labeled by MSD with SULFO-tag) using standard MSD plate processing, washing, and detection protocols. In the EPO assay, P-STAT5 was detected using the phospho-STAT5a,b Whole Cell Lysate Kit (MSD; Catalog No. K150IGD-1). The electrochemiluminescence (ECL) signal of wells was read on the MESO SECTOR 5600 (MSD) reader.
(§2) Data analysis was performed by subtracting the negative control (cytokine stimulated and 20 μM control inhibitor-treated cells) mean ECL value from the ECL value of all wells, determining percent of control for test compound well ECL values relative to the positive control (cytokine stimulated and DMSO-treated cells) mean ECL value, and determining the IC50 for test compounds with a four-parameter logistic fit model as shown in Equation 4.

[5] = tested on: IL-13-stimulated P-STAT6 in TF-1 human erythroleukemia cells; assay: P-STAT6 TF-1 + IL-13 assay (JAK1 pathway); type: cell-based; settings: Homo sapiens, TF-1, TF-1 cells, IL13 stimulation; read-out: Cellular JAK1 PSTAT6 TF-1 + IL13
Experimental: as §1, §2

T1 sequence (P23458 854-1154): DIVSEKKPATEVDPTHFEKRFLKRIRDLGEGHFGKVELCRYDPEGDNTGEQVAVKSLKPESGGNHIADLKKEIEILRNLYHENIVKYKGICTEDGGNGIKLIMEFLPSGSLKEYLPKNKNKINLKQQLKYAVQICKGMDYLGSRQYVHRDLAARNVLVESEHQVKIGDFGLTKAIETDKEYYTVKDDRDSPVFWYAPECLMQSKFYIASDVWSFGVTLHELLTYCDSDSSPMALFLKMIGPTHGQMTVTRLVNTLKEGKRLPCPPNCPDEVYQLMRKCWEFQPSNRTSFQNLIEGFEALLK
Chain of Recombinant human JAK2 kinase domain protein (Residues 812-1132) (O60674 812-1132): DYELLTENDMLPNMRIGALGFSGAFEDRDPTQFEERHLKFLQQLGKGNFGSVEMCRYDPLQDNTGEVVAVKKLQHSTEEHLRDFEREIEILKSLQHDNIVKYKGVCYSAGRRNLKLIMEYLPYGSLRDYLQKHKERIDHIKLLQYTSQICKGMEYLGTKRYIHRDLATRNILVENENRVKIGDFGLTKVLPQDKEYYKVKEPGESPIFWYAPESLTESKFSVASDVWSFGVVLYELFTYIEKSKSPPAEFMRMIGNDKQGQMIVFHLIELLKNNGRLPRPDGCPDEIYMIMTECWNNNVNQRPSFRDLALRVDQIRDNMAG

| Ki [2] [nM] | Ki [3] [nM] | IC50 [4] [nM] | IC50 [5] [nM] | SMILES | IC50 ([1]; Homo sapiens, BEAS-2B) [nM] | IC50 [1] [nM] |
| --- | --- | --- | --- | --- | --- | --- |
| 0.18 | 0.28 | 4.9 | 4 | CC(O)Cn1cc(Oc2ccc(OC(F)F)c(-c3nn(C)cc3NC(=O)c3cnn4cccnc34)c2)cn1 (racemic) [Example 121, N-[3-[2-(difluoromethoxy)-5-[1-[rac-(2S)-2-hydroxypropyl]pyrazol-4-yl]oxy-phenyl]-1-methyl-pyrazol-4-yl]pyrazolo[1,5-a]pyrimidine-3-carboxamide] | 18 |  |
| 1.2 | 1.6 | 33 | 12 | CN1CCC(n2cc(Oc3ccc(OC(F)F)c(-c4nn(C)cc4NC(=O)c4cnn5cccnc45)c3)cn2)C1 (racemic) [Example 141, N-[3-[2-(difluoromethoxy)-5-[1-[rac-(3R)-1-methylpyrrolidin-3-yl]pyrazol-4-yl]oxy-phenyl]-1-methyl-pyrazol-4-yl]pyrazolo[1,5-a]pyrimidine-3-carboxamide] |  | 46 |
| 0.23 | 0.29 | 160 | 76 | Cn1cc(NC(=O)c2cnn3cccnc23)c(-c2cc(Oc3cnn([C@@H]4CNCC[C@H]4O)c3)ccc2OC(F)F)n1 (stereo in doubt) [Example 181, N-[3-[2-(difluoromethoxy)-5-[1-[rac-(3R,4R)-4-hydroxy-3-piperidyl]pyrazol-4-yl]oxy-phenyl]-1-methyl-pyrazol-4-yl]pyrazolo[1,5-a]pyrimidine-3-carboxamide] | 60 |  |
| 0.21 | 0.32 | 38 | 12 | CN1CC[C@H](O)[C@@H](n2cc(Oc3ccc(OC(F)F)c(-c4nn(C)cc4NC(=O)c4cnn5cccnc45)c3)cn2)C1 (stereo in doubt) [Example 184, N-[3-[2-(difluoromethoxy)-5-[1-[rac-(3S,4S)-4-hydroxy-l-methyl-3-piperidyl]pyrazol-4-yl]oxy-phenyl]-1-methyl-pyrazol-4-yl]pyrazolo[1,5-a]pyrimidine-3-carboxamide] | 47 |  |
| 0.19 | 0.32 | 11 | 3.6 | Cn1cc(NC(=O)c2cnn3cccnc23)c(-c2cc(Oc3cccnc3)ccc2OC(F)F)n1 [Example 2, N-[3-[2-(difluoromethoxy)-5-(3-pyridyloxy)phenyl]-1-methyl-pyrazol-4-yl]pyrazolo[1,5-a]pyrimidine-3-carboxamide] | 20 |  |
| 0.28 | 0.44 | 8.6 | 5.4 | Cc1ccc(Oc2ccc(OC(F)F)c(-c3nn(C)cc3NC(=O)c3cnn4cccnc34)c2)cc1C(=O)N(C)C [Example 49, N-[3-[2-(difluoromethoxy)-5-[3-(dimethylcarbamoyl)-4-methyl-phenoxy]phenyl]-1-methyl-pyrazol-4-yl]pyrazolo[1,5-a]pyrimidine-3-carboxamide] | 20 |  |
| 0.18 | 0.31 | 7.3 | 4.6 | Cn1cc(Oc2ccc(OC(F)F)c(-c3nn(C)cc3NC(=O)c3cnn4cccnc34)c2)cn1 [Example 59, N-[3-[2-(difluoromethoxy)-5-(1-methylpyrazol-4-yl)oxy-phenyl]-1-methyl-pyrazol-4-yl]pyrazolo[1,5-a]pyrimidine-3-carboxamide] | 13 |  |
| 0.25 | 0.24 | 4.8 | 8.2 | CN1CC(O)(c2cccc(Oc3ccc(OC(F)F)c(-c4nn(C)cc4NC(=O)c4cnn5cccnc45)c3)c2)C1 [Example 79, N-[3-[2-(difluoromethoxy)-5-[3-(3-hydroxy-l-methyl-azetidin-3-yl)phenoxy]phenyl]-1-methyl-pyrazol-4-yl]pyrazolo[1,5-a]pyrimidine-3-carboxamide] | 8 |  |
| 0.6 | 0.58 | 15 | 8.4 | Cn1cc(NC(=O)c2cnn3cccnc23)c(-c2cc(Oc3cccc(C4CNCCO4)c3)ccc2OC(F)F)n1 (centres unmarked) [Example 82, N-[3-[2-(difluoromethoxy)-5-(3-morpholin-2-ylphenoxy)phenyl]-1-methyl-pyrazol-4-yl]pyrazolo[1,5-a]pyrimidine-3-carboxamide] | 51 |  |
| 0.26 | 0.25 | 3 | 5.2 | CN1CC(O)(c2cc(F)cc(Oc3ccc(OC(F)F)c(-c4nn(C)cc4NC(=O)c4cnn5cccnc45)c3)c2)C1 [Example 96, N-[3-[2-(difluoromethoxy)-5-[3-fluoro-5-(3-hydroxy-1-methyl-azetidin-3-yl)phenoxy]phenyl]-1-methyl-pyrazol-4-yl]pyrazolo[1,5-a]pyrimidine-3-carboxamide] | 13 |  |
| 0.14 | 0.3 | 13 | 7 | Cn1cc(NC(=O)c2cnn3cccnc23)c(-c2cc(Oc3cnn(CCO)c3)ccc2OC(F)F)n1 [Example 113, N-[3-[2-(difluoromethoxy)-5-[1-(2-hydroxyethyl)pyrazol-4-yl]oxy-phenyl]-1-methyl-pyrazol-4-yl]pyrazolo[1,5-a]pyrimidine-3-carboxamide] | 20 |  |
| 0.49 | 0.84 | 29 | 6 | Cn1cc(NC(=O)c2cnn3cccnc23)c(-c2cc(Oc3cnn(C4COC4)c3)ccc2OC(F)F)n1 [Example 114, N-[3-[2-(difluoromethoxy)-5-[1-(oxetan-3-yl)pyrazol-4-yl]oxy-phenyl]-1-methyl-pyrazol-4-yl]pyrazolo[1,5-a]pyrimidine-3-carboxamide] | 29 |  |
| 0.41 | 0.52 | 52 | 51 | CN1CC(O)(Cn2cc(Oc3ccc(OC(F)F)c(-c4nn(C)cc4NC(=O)c4cnn5cccnc45)c3)cn2)C1 [Example 128, N-[3-[2-(difluoromethoxy)-5-[1-[(3-hydroxy-l-methyl-azetidin-3-yl)methyl]pyrazol-4-yl]oxy-phenyl]-1-methyl-pyrazol-4-yl]pyrazolo[1,5-a]pyrimidine-3-carboxamide] | 30 |  |
| 0.6 | 0.84 |  |  | CCN1CCC(O)(Cn2cc(Oc3ccc(OC(F)F)c(-c4nn(C)cc4NC(=O)c4cnn5cccnc45)c3)cn2)CC1 [Example 212, N-[3-[2-(difluoromethoxy)-5-[1-[(1-ethyl-4-hydroxy-4-piperidyl)methyl]pyrazol-4-yl]oxy-phenyl]-1-methyl-pyrazol-4-yl]pyrazolo[1,5-a]pyrimidine-3-carboxamide] | 120 |  |
